Drawing on the CATMoS acute toxicity set (Mansouri et al. 2021), this text covers GHS category for 88 molecules.

The data set can be described thus: GHS categories as the set defines them, by LD50: 1 up to 5, 2 up to 50, 3 up to 300, 4 up to 2000, 5 above 2000 mg/kg. To be noted: rat; in vivo; po.

`CC[C@H](C)[C@H](NC(=O)[C@H](CCC(=O)O)NC(=O)[C@H](CO)NC(=O)[C@@H](NC(=O)[C@@H](N)CO)C(C)C)C(=O)N[C@@H](CCC(N)=O)C(=O)N[C@@H](CC(C)C)C(=O)N[C@@H](CCSC)C(=O)N[C@@H](Cc1cnc[nH]1)C(=O)N[C@@H](CC(N)=O)C(=O)N[C@@H](CC(C)C)C(=O)NCC(=O)N[C@@H](CCCCN)C(=O)N[C@@H](Cc1cnc[nH]1)C(=O)N[C@@H](CC(C)C)C(=O)N[C@@H](CC(N)=O)C(=O)N[C@@H](CO)C(=O)N[C@@H](CCSC)C(=O)N[C@@H](CCC(=O)O)C(=O)N[C@@H](CCCNC(=N)N)C(=O)N[C@H](C(=O)N[C@@H](CCC(=O)O)C(=O)N[C@@H](Cc1c[nH]c2ccccc12)C(=O)N[C@@H](CC(C)C)C(=O)N[C@@H](CCCNC(=N)N)C(=O)N[C@@H](CCCCN)C(=O)N[C@@H](CCCCN)C(=O)N[C@@H](CC(C)C)C(=O)N[C@@H](CCC(N)=O)C(=O)N[C@@H](CC(=O)O)C(=O)N[C@H](C(=O)N[C@@H](Cc1cnc[nH]1)C(=O)N[C@@H](CC(N)=O)C(=O)N[C@@H](Cc1ccccc1)C(=O)O)C(C)C)C(C)C` registered a GHS category of 2. `CC(C)OC(=O)c1cc(Cl)ccc1OC(N)=O` gave a GHS category of 5. In turn, `CCNC(=O)CCSCc1nnnn1-c1ccccc1` came in with a GHS category of 4. `CCCCCCCCCCCCCC(=O)OCCCC`: the GHS category is recorded as 5. In the case of `CCCc1c(Cc2ccc(-c3ccccc3-c3nn[nH]n3)cc2)c(=O)nc2nc(N)[nH]n12` it was 4.

In turn, `O=C1OCc2c(Cl)cccc21` yielded a GHS category of 4. In the case of `CCCCCC(=Cc1ccccc1)C(OCC)OCC` it was 5; in that of `CCCCn1cc2c3c(cccc31)C1=C[C@@H](CO)CN(C)[C@@H]1C2`, 4; in that of `CNC(=O)Oc1cc(C)c(S(C)(=O)=O)c(C)c1`, 4.

`COc1cc([N+](=O)[O-])ccc1N=NC(C(C)=O)C(=O)Nc1ccccc1OC` (stereo not drawn) had a GHS category of 5.

As for `C[Si](C)(C)[Si](C)(C)C`, the GHS category is 5. Regarding `CC(C)CC(=O)O[C@@H]1C[C@@H]2CC[C@@]1(C)C2(C)C` (racemic), the GHS category is 5.

Molecule `C=CC(C)=CCC1OC1(C)C` (stereo not drawn) had a GHS category of 5. `Nc1nc(N)nc(Nc2nc(N)nc(N)n2)n1` displayed a GHS category of 5. `CCN(CCO)N=O` displayed a GHS category of 5. With `OC(Cc1ccccc1Cl)(Cn1[nH]cnc1=S)C1(Cl)CC1` (stereo not drawn), the GHS category worked out at 5. Turning to `CC1=CCC(C=CC(C)C(C)O)C1(C)C` (stereo not drawn), the GHS category turned out to be 4.

`CCCCCCCCOC(=O)C(C)C` returned a GHS category of 5. Molecule `CC(C)C[C@H]1C(=O)N2CCC[C@H]2[C@]2(O)O[C@](NC(=O)[C@@H]3C=C4c5cccc6[nH]c(Br)c(c56)C[C@H]4N(C)C3)(C(C)C)C(=O)N12` gave a GHS category of 5.

In turn, `COCCOc1nc(Nc2ccc(C=Cc3ccc(Nc4nc(OCCOC)nc(N(C)CCS(=O)(=O)O)n4)cc3S(=O)(=O)O)c(S(=O)(=O)O)c2)nc(N(C)CCS(=O)(=O)O)n1` registered a GHS category of 5. In the case of `O=C(C=Cc1ccccc1)OCCCc1ccccc1` it was 5; in that of `COc1cc2c(cc1OC)C(c1cccc(Cl)c1)=NN=C(C)C2`, 5. `CN(C)Cn1c(=O)oc2ccc(Cl)cc21` had a GHS category of 4.

In the case of `CC1(C)C2CC[C@]3(C)C(CC=C4[C@H]5C[C@](C)(C(=O)O)CC[C@]5(C)CC[C@]43C)[C@@]2(C)CC[C@@H]1OC(=O)C=CC(=O)O` (stereo partly drawn), the GHS category came to 5.

For `CCC(=O)OCC(=O)OC(C)C1CCCC(C)(C)C1` (stereo not drawn), the GHS category was found to be 5.

Molecule `CCCc1ccc(OCC(=O)N2CCN(C(=O)COc3ccc(CCC)cc3OC)CC2)c(OC)c1` had a GHS category of 4. Take `CC1(C)CC[C@@]2(C(=O)O)CC[C@@]3(C)C(=CC[C@H]4[C@]5(C)CC[C@@H](O)C(C)(C)[C@H]5CC[C@@]43C)[C@H]2C1` (racemic): the GHS category turned out to be 5.

With `Cc1cccc2ncc(C(=O)Nc3ccccc3)c(=O)n12`, the GHS category came out at 3. In the case of `Nc1ccc(C(=O)NCCN2CCN(c3ccccn3)CC2)cc1` it was 5; in that of `O=C1CN=C(c2ccccc2Cl)c2cc([N+](=O)[O-])ccc2N1`, 5; in that of `CC(C)C1CCCCC1`, 5. Consider `Cc1ccc(C(=O)Oc2ccc(C(O)CNC(C)(C)C)cc2OC(=O)c2ccc(C)cc2)cc1` (stereo not drawn), for which the GHS category was found to be 5.

As for `O=C(Nc1cc(Cl)c(NC(=O)c2cc3ccccc3c(N=Nc3cc(C(F)(F)F)ccc3Cl)c2O)cc1Cl)c1cc2ccccc2c(N=Nc2cc(C(F)(F)F)ccc2Cl)c1O`, the GHS category is 5. In the case of `OC1CCC(CN2CCC(=C3c4ccc(F)cc4Sc4ccc(C(F)(F)F)cc43)CC2)CC1` (stereo not drawn) it was 3; in that of `COC(=O)Cc1c(C(=O)OC)sc(N)c1C#N`, 5; in that of `CC1(C)CCC(=Cc2ccc(Cl)cc2)C1(O)Cn1cncn1` (stereo not drawn), 5. As to `CCOC(=O)CCN(C(=O)c1ccc2c(c1)nc(CCl)n2C)c1ccccn1`, the GHS category was found to be 4. Molecule `CC#Cc1cc(C)nc(Nc2ccccc2)n1` displayed a GHS category of 5. The molecule `CC(C)(O)CCC(C)(C)O` registered a GHS category of 5. In the case of `CCN(CC)C(=O)CCSCc1nnnn1C`, the GHS category is 4. In the case of `Cc1cc(C(=O)NCCc2ccc(S(=O)(=O)NC(=O)NN3CCCCCC3)cc2)no1` it was 5. With `O=C(Nc1ccccc1SSc1ccccc1NC(=O)c1ccccc1)c1ccccc1` the figure was 5.

The molecule `CCC(C)CCC(C)(CC)OC(C)=O` (stereo not drawn) showed a GHS category of 5. On to `CCOC(=O)C(Br)CC` (stereo not drawn), for which the GHS category is on record as 4. In the case of `CCCCC1C(=O)N(c2cccc(O)c2)N(c2cccc(O)c2)C1=O` it was 4; in that of `Cc1nc2ncnn2c(C)c1Cc1ccc(-c2ccccc2-c2nn[nH]n2)cc1`, 4.

Regarding `Cc1ccc(-n2nccn2)c(C(=O)O)c1`, the GHS category came to 5. `CCC1(CC)COC(Cn2cncn2)(c2cc3ccccc3o2)OC1`: the GHS category is 4. Regarding `O=C1/C(=C2\Nc3ccccc3C2=O)Nc2ccccc21`, the GHS category was determined as 5. As for `O=S(O)c1ccc(Cl)cc1`, the GHS category came out at 4.

As for `CC1Oc2cc(C(=O)c3ccccc3)ccc2N(C)C1=O` (stereo not drawn), the GHS category stood at 5. Molecule `Nc1ccc2cc(S(=O)(=O)O)c(/N=N/c3ccc(-c4ccc(/N=N/c5ccc(O)c(C(=O)O)c5)cc4)cc3)c(O)c2c1` had a GHS category of 5. `O=c1[nH]c(=O)[nH]c(=O)[nH]1` returned a GHS category of 5. Molecule `CC(=O)O[C@@]12CCC[C@@](C)(CC[C@@H]3[C@@H]1CC3(C)C)C2` had a GHS category of 5. `CCCCC(CC)COP(=O)(Oc1ccccc1)Oc1ccccc1` (stereo not drawn): the GHS category came out at 5. The molecule `CCc1ccccc1OP(=O)(Oc1ccccc1CC)Oc1ccccc1CC` gave a GHS category of 5. As to `Nc1nc2c(s1)CC(N)CC2` (stereo not drawn), the GHS category is 4.

`C[C@]12Cc3nonc3C[C@@H]1CC[C@@H]1[C@@H]2CC[C@@]2(C)[C@H]1CC[C@]2(C)O` gave a GHS category of 5. In the case of `NC(=O)NNC(N)=O` it was 5. The molecule `Nc1nc(=O)c(Br)c(-c2ccccc2)[nH]1` showed a GHS category of 5.

Turning to `CCCCCCCCCCCCCCCCCNP1(=S)OCc2cc([N+](=O)[O-])ccc2O1` (stereo not drawn), the GHS category is 3. With `CC1=CC(=O)N(Cc2cccc(CN3C(=O)C=C(C)C3=O)c2)C1=O` the figure was 5.

Take `OC[C@@H](O)[C@@H](O[C@@H]1O[C@H](CO)[C@H](O)[C@H](O)[C@H]1O)[C@H](O)[C@@H](O)CO`: the GHS category is 5. With `NC(=O)[C@@H]1C[C@]2(NC(=O)NC2=O)c2cc(F)ccc2O1`, the GHS category is 5. Turning to `NC(N)=Nc1nc2c(s1)CN(C(=O)NC1CC1)CC2`, the GHS category was 4. Turning to `COC(=O)c1nc(Cl)c(Cl)nc1N`, the GHS category is recorded as 5. The molecule `CC(COc1ccc(Oc2ccccc2)cc1)Oc1ccccn1` (stereo not drawn) returned a GHS category of 5. For the molecule `CCCCCCOC(=O)CCC`, the GHS category amounted to 5. `Cc1ccccc1N1C(=O)c2cc(S(N)(=O)=O)c(Cl)cc2NC1C` (stereo not drawn) showed a GHS category of 5. `CCOC(=O)c1cnn(-c2ccccc2)c1N` registered a GHS category of 4.

The molecule `CC(C)OC(=O)[C@@H](C)N(C(=O)c1ccccc1)c1ccc(F)c(Cl)c1` had a GHS category of 5. Consider `CC(C=O)(CO)CO`, for which the GHS category came to 5. `CCN(CC)CCC(C#N)(CC=C(C)C)c1cccc2ccccc12` (stereo not drawn) registered a GHS category of 4. `CCOC(=O)N(C)C1CCCN(c2nc(N)c3cc(OC)c(OC)cc3n2)C1` (stereo not drawn) showed a GHS category of 4.

As for `Cn1c(N)cc(=O)n(C)c1=O`, the GHS category is listed as 5. With `CC1(C)C[C@@H]1C(=O)N/C(=C\CCCCSC[C@H](N)C(=O)O)C(=O)O` the figure was 5.

`Cc1c([N+](=O)[O-])c(C)c([N+](=O)[O-])c(C(C)(C)C)c1[N+](=O)[O-]`: the GHS category amounted to 5. `Cc1cc(C(C)(C)C)c(O)c(C)c1CC#N` showed a GHS category of 5. As for `CSCCC(NC(=O)C(N)Cc1c[nH]c2ccccc12)C(=O)NC(CC(=O)O)C(=O)NC(Cc1ccccc1)C(N)=O` (stereo not drawn), the GHS category came to 5. The molecule `Cn1c(=O)c2[nH]c(=O)[nH]c2n(C)c1=O` yielded a GHS category of 5. Molecule `C#CCOc1cc(-n2nc3n(c2=O)CCCC3)c(Cl)cc1Cl` displayed a GHS category of 5.

Consider `COc1ccc(C(=O)Nc2ccccc2)cc1N=Nc1c(O)c(C(=O)Nc2cc(Cl)ccc2OC)cc2ccccc12`, for which the GHS category is 5. In turn, `CCCCCCCCCCCCCCOC(=O)OOC(=O)OCCCCCCCCCCCCCC` registered a GHS category of 5. In turn, `C[C@H]1O[C@H](OC[C@H]2O[C@H](O)[C@H](OS(=O)(=O)O)[C@@H](OS(=O)(=O)O)[C@@H]2OS(=O)(=O)O)[C@H](OS(=O)(=O)O)[C@@H](OS(=O)(=O)O)[C@@H]1O` displayed a GHS category of 5. Regarding `C=C[Si]1(C)O[Si](C)(C=C)O[Si](C)(C=C)O[Si](C)(C=C)O1` (stereo not drawn), the GHS category was 5. In the case of `CC1(C)S[C@@H]2[C@H](NC(=O)C(C(=O)O)c3ccccc3)C(=O)N2[C@H]1C(=O)O` (stereo partly drawn) it was 5. Molecule `FC(F)(F)OC(Cl)C(F)(Cl)Cl` (stereo not drawn) showed a GHS category of 5. In the case of `Nc1cc(Cl)c(Cl)cc1Cl` it was 5.
